What all share (assay): cAMP accumulation assay, GCGR WT, mutant or modified constructs
Assay [1] addresses GCGR (Homo sapiens, UniProt P47871, R199A). Format: cell-based. The conditions noted are these: GCGR R199A, HEK293T. Also noted: V5 (C); 6×His (C); expressed in transfected cells; host or cells: HEK293T. Here is the method: (§1) Human embryonic kidney 293 cells containing SV40 large T-antigen (HEK293T) were cultured in DMEM (Gibco) supplemented with 10% (v/v) fetal bovine serum (FBS, Gibco), 1 mM sodium pyruvate (Gibco) and 100 units/mL penicillin and 100 μg/mL streptomycin at 37 °C in 5% CO2. Chinese hamster ovary (CHO-K1) cells were cultured in F-12 (Gibco) containing 10% FBS, 100 units/mL penicillin and 100 μg/mL streptomycin at 37 °C in 5% CO2. For cAMP and receptor expression assays, HEK293T cells were seeded into 6-well cell culture plates at a density of 7 × 10^5 cells per well. After overnight incubation, cells were transfected with GIPR, GLP-1R or GCGR construct using Lipofectamine 2000 or Lipofectamine 3000 transfection reagent (Invitrogen). For whole-cell binding assay, CHO-K1 cells were seeded into 96-well fibronectin-treated cell culture plates at a density of 3 × 10^4 cells per well. After overnight incubation, cells were transfected with GIPR, GLP-1R or GCGR construct using Lipofectamine 2000 transfection reagent (Invitrogen). Following 24 h culturing, the transfected cells were ready for use. […]
(§2) For GIPR, GLP-1R and GCGR, multi-targeting agonist stimulated cAMP accumulation was measured by a LANCE Ultra cAMP kit (PerkinElmer). After 24 h culture, the transfected cells were seeded into 384-well microtiter plates at a density of 3,000 cells per well in HBSS supplemented with 5 mM HEPES, 0.1% (w/v) BSA or 0.1% (w/v) casein and 0.5 mM 3-isobutyl-1-methylxanthine. The cells were stimulated with different concentrations of peptide agonists for 40 min at RT. Eu-cAMP tracer and ULight^TM-anti-cAMP were then diluted by cAMP detection buffer and added to the plates separately to terminate the reaction. Plates were incubated at RT for 1 h and the fluorescence intensity measured at 620 nm and […] by an EnVision multilabel plate reader (PerkinElmer).

The target in assay [2] is GCGR (Homo sapiens, UniProt P47871, W87A). Format: cell-based. The conditions noted are these: HEK-293T, GCGR W87A; HEK293T. Details: V5 (C); 6×His (C); expressed in transfected cells; host or cells: HEK293T. Here is the method:
as §1, §2

Assay [3] has as its target GCGR (Homo sapiens, UniProt P47871, Y145A). Format: cell-based. Details: V5 (C); 6×His (C); expressed in transfected cells; host or cells: HEK293T. The note with it: HEK-293T, GCGR Y145A; HEK293T. The procedure: as §1, §2
Assay [4] addresses GCGR (Homo sapiens, UniProt P47871, Y202A). Format: cell-based. Details: V5 (C); 6×His (C); expressed in transfected cells; host or cells: HEK293T. The conditions noted are these: HEK-293T, GCGR Y202A; HEK293T. Here is the method: as §1, §2
The target in assay [5] is GCGR (Homo sapiens, UniProt P47871, Y138A). In kind it is cell-based. Also noted: V5 (C); 6×His (C); expressed in transfected cells; host or cells: HEK293T. The conditions noted are these: HEK-293T, GCGR Y138A; HEK293T. The procedure: as §1, §2
Sequence of GCGR (Homo sapiens, UniProt P47871, Y138A) (P47871 26-477 Y138A): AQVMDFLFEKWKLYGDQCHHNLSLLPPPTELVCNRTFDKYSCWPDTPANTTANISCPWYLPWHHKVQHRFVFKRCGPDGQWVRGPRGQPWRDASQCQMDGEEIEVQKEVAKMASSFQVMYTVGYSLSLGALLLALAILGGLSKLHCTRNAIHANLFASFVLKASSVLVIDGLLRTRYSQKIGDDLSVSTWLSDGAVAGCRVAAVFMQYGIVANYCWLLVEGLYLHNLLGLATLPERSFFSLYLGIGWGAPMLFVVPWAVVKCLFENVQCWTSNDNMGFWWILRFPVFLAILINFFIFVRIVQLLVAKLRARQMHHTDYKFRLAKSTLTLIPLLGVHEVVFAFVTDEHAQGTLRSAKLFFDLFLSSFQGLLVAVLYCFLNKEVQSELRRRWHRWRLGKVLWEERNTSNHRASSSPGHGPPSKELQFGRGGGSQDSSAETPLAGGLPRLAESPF
For assay [6], the target named is GCGR (Homo sapiens, UniProt P47871, Q293A). Format: cell-based. Details: V5 (C); 6×His (C); expressed in transfected cells; host or cells: HEK293T. The note with it: GCGR Q293A, HEK293T. Here is the method: as §1, §2
Sequence of GCGR (Homo sapiens, UniProt P47871, Q293A) (P47871 26-477 Q293A): as the sequence (P47871 26-477 Y138A) above, with A113Y, Q268A counted along it
The target in assay [7] is GCGR (Homo sapiens, UniProt P47871, W215A). In kind it is cell-based. Details: V5 (C); 6×His (C); expressed in transfected cells; host or cells: HEK293T. The note with it: HEK-293T, GCGR W215A; HEK293T. The procedure:
as §1, §2

Assay [8] concerns the target GCGR (Homo sapiens, UniProt P47871, K205A). In kind it is cell-based. The conditions noted are these: GCGR K205A, HEK293T. Also noted: V5 (C); 6×His (C); expressed in transfected cells; host or cells: HEK293T. Here is the method:
as §1, §2

Assay [9] concerns the target GCGR (Homo sapiens, UniProt P47871, D195A/Q142A/R199A). In kind it is cell-based. Also noted: V5 (C); 6×His (C); expressed in transfected cells; host or cells: HEK293T. The note with it: HEK-293T, GCGR Q142A/D195A/R199A; HEK293T. The procedure: as §1, §2
Assay [10] addresses GCGR (Homo sapiens, UniProt P47871, Q131A). In kind it is cell-based. Also noted: V5 (C); 6×His (C); expressed in transfected cells; host or cells: HEK293T. The conditions noted are these: GCGR Q131A, HEK293T. Here is the method: as §1, §2
The target in assay [11] is GCGR (Homo sapiens, UniProt P47871, D195A). Format: cell-based. Also noted: V5 (C); 6×His (C); expressed in transfected cells; host or cells: HEK293T. The note with it: HEK-293T, GCGR D195A; HEK293T. Here is the method:
as §1, §2

Assay [12] has as its system GCGR. Format: cell-based, human. The conditions noted are these: GCGR triple mutant (Q142A + D195A + R199A) vs WT. The procedure: as §1
For GIPR, GLP-1R and GCGR, multi-targeting agonist stimulated cAMP accumulation was measured by a LANCE Ultra cAMP kit (PerkinElmer). […] Plates were incubated at RT for 1 h and the fluorescence intensity measured at 620 nm and […] by an EnVision multilabel plate reader (PerkinElmer).

Setting [13] is: read-out: cAMP pEC50 (converted).

The source of these data is PMC8881610 (Nature Communications, 2022).

Sequence of GCGR (Homo sapiens, UniProt P47871, Q131A) (P47871 26-477 Q131A): as the sequence (P47871 26-477 Y138A) above, with Q106A, A113Y counted along it
Sequence of GCGR (Homo sapiens, UniProt P47871, K205A) (P47871 26-477 K205A): as the sequence (P47871 26-477 Y138A) above, with A113Y, K180A counted along it
Sequence of GCGR (Homo sapiens, UniProt P47871, R199A) (P47871 26-477 R199A): as the sequence (P47871 26-477 Y138A) above, with A113Y, R174A counted along it
Sequence of GCGR (Homo sapiens, UniProt P47871, D195A/Q142A/R199A) (P47871 26-477 Q142A/D195A/R199A): as the sequence (P47871 26-477 Y138A) above, with A113Y, Q117A, D170A, R174A counted along it
Sequence of GCGR (Homo sapiens, UniProt P47871, Y145A) (P47871 26-477 Y145A): as the sequence (P47871 26-477 Y138A) above, with A113Y, Y120A counted along it
Sequence of GCGR (Homo sapiens, UniProt P47871, Y202A) (P47871 26-477 Y202A): as the sequence (P47871 26-477 Y138A) above, with A113Y, Y177A counted along it
Sequence of GCGR (Homo sapiens, UniProt P47871, W215A) (P47871 26-477 W215A): as the sequence (P47871 26-477 Y138A) above, with A113Y, W190A counted along it
Sequence of GCGR (Homo sapiens, UniProt P47871, D195A) (P47871 26-477 D195A): as the sequence (P47871 26-477 Y138A) above, with A113Y, D170A counted along it
Sequence of GCGR (Homo sapiens, UniProt P47871, W87A) (P47871 26-477 W87A): as the sequence (P47871 26-477 Y138A) above, with W62A, A113Y counted along it

Broadly, the Emax is the greatest response seen or fitted, relative to the assay's reference. As to `CCCCCCCCCCCCCCCC(=O)N[C@@H](CCC(=O)NCCCC[C@H](NC(=O)[C@H](CC(=O)O)NC(=O)[C@H](CO)NC(=O)[C@@H](NC(=O)[C@H](Cc1ccccc1)NC(=O)[C@@H](NC(=O)CNC(=O)[C@H](CCC(N)=O)NC(=O)C(C)(C)NC(=O)[C@@H](N)Cc1c[nH]cn1)[C@@H](C)O)[C@@H](C)O)C(=O)N[C@@H](CO)C(=O)N[C@@H](CCCCN)C(=O)N[C@@H](Cc1ccc(O)cc1)C(=O)N[C@@H](CC(C)C)C(=O)N[C@@H](CC(=O)O)C(=O)N[C@@H](CCC(=O)O)C(=O)N[C@@H](CCCNC(=N)N)C(=O)N[C@@H](C)C(=O)N[C@@H](C)C(=O)N[C@@H](CCC(N)=O)C(=O)N[C@@H](CC(=O)O)C(=O)N[C@@H](Cc1ccccc1)C(=O)N[C@H](C(=O)N[C@@H](CCC(N)=O)C(=O)N[C@@H](Cc1c[nH]c2ccccc12)C(=O)N[C@@H](CC(C)C)C(=O)N[C@@H](CC(C)C)C(=O)N[C@@H](CC(=O)O)C(=O)NCC(=O)NCC(=O)N1CCC[C@H]1C(=O)N[C@@H](CO)C(=O)N[C@@H](CO)C(=O)NCC(=O)N[C@@H](C)C(=O)N1CCC[C@H]1C(=O)N1CCC[C@H]1C(=O)N1CCC[C@H]1C(=O)N[C@@H](CO)C(N)=O)C(C)C)C(=O)O` [Peptide 20], the EC50 is 0.0129 nM in assay [1] (setting [13]), 8.32 pM in assay [6] (setting [13]), 0.0132 nM in assay [8] (setting [13]) and 0.0282 nM in assay [10] (setting [13]). Further, the Emax is 99.7 ± 1.47% in [1] (HEK-293T); 98.1 ± 1.54% in assay [2]; 103 ± 1.79% in assay [3]; 103 ± 2.48% in [4]; 101 ± 2.39% in assay [5]; 99.5 ± 1.63% in assay [6] (HEK-293T). Besides, the Emax was determined as 99.6 ± 2.02% in assay [7]; 101 ± 1.28% in assay [8] (HEK-293T); 100 ± 2.37% in assay [9]; 101 ± 1.59% in assay [10] (HEK-293T); 102 ± 2.1% in assay [11]. Further, the “reduction of potency (cAMP) by receptor mutation” value in assay [12] was found to be 93 fold.
